Experiments:
Tremors by oxotremorine = experiment: Oxotremorine tremors in the mouse; assay type: in vivo; details: oral 60 minutes before 2 mg/kg i.p. oxotremorine, read-out: Tremors by oxotremorine ED50 (confidence limits p)
Stress ulcer = Stress ulcer (restraint+immersion) in the rat; assay type: in vivo; details: po, 6 hours immersion at about 20° C., ulcer score 0 to 5, read-out: Antiulcer activity (stress ulcer) ED50 (confidence limits p = 0.95)
Experimental: 2. Stress ulcer (restraint+immersion) in the rat The method described by Takagi, K., Okabes, S., Jap. J. Pharmacol., 18, 9 (1968) has been used. The animals fasted for 48 hours were immobilized in a stress cage (drilled cylindrical tube 14.5×3.5 cm) and immersed in H2 O (at a temperature of about 20° C.) up to the xiphoid process. After 6 hours immersion the animals were sacrificed in excess ether, the stomach was drawn and opened along the great curvature. The ulcers were evaluated according to a score ranging from 0 to 5 assigning: 0.5 for each small ulcera (<3 mm) or in the presence of erosions or haemorrages 1 for each great ulcer (>3 mm). The oral treatment with the reference drug pirenzepine at the doses of 12.5--25--50 mg/kg has been carried out 1 hour before the stress.

Gastric acid secretion = Gastric acid secretion in the pylorus ligated rat; assay type: in vivo, male Sprague-Dawley rats; details: oral immediately after pylorus ligation, ligation 4 hours, read-out: Antisecretory activity ED50 (confidence limits p = 0.95)
Experimental: 1. Gastric acid secretion in the pylorus ligated rat The method of […]., Gruenstein M., Siplet H., Gastroenterology, 5, 43 (1945) was used, slightly modified according to the following: Male Sprague-Dawley rats weighing 150±5 g fasting since 48 hours were used. Pylorus ligation was performed for 4 hours. The products under exam were administered by the oral route immediately after the ligation.

Carbachole salivation = experiment: Charbacole salivation in the rat; assay type: in vivo, male Sprague-Dawley rats; details: 1 h, oral one hour before 1 mg/kg i.p. charbacole, read-out: Carbachole salivation ED50 (confidence limits p = 0.95)
Experimental: 3. Charbacole salivation in the rat The method cited by R. Turner: "Parasympatholytic Agents" in R. Turner "Screening Methods in Pharmacology" pag. 137. Academic Press. New York & London 1965, with slight changes, was used. Male Sprague-Dawley rats, average weight 150±5 g, fasted for 24 hours, were used. The salivation was induced by the intraperitoneal administration of 1 mg/kg of charbacole. The products under exam were administered orally one hour before the chollinergic stimulus.

Acute toxicity = details: mouse, in vivo; Swiss mice, oral, observation 14 days
Experimental: The acute toxicity was determined by administering by oral route the substances under exam to Swiss mice; average weight 20±2 g. The observation period was 14 days. 10 Animals were used for each tested dose.

In the case of `CN1CCN(CC(=O)N2c3ccsc3C(=O)Nc3cccnc32)CC1.Cl` [Example 3, 4-[(4-Methylpiperazin-1-yl)acetyl]-4,9-dihydro-10H-pyrido[3,2-b]thieno[3,2-e][1,4]-diazepin-10-one hydrochloride], the ED50 (Tremors by oxotremorine) is reported as over 1000 mg/kg, the ED50 (Stress ulcer) is reported as 55.9 mg/kg and the ED50 (Gastric acid secretion) is reported as 27.6 mg/kg. It also gave an ED50 (Carbachole salivation) of over 200 mg/kg and an LD50 at 336 h (Acute toxicity) of over 2000 mg/kg.
`CN1CCN(CC(=O)N2c3cscc3C(=O)Nc3cccnc32)CC1` [Example 13, 4-[(4-Methylpiperazin-1-yl)acetyl]-4,9-dihydro-10H-pyrido[3,2-b]thieno[3,4-e][1,4]-diazepin-10-one] gave an ED50 (Tremors by oxotremorine) of over 1000 mg/kg, an ED50 (Stress ulcer) of 28.8 mg/kg and an ED50 (Gastric acid secretion) of 12.4 mg/kg. The ED50 (Carbachole salivation) was over 200 mg/kg and the LD50 at 336 h (Acute toxicity) was over 1000 mg/kg.
`Cc1scc2c1N(C(=O)CN1CCN(C)CC1)c1ncccc1NC2=O` [Example 14, 4-[(4-Methylpiperazin-1-yl)acetyl]-3-methyl-4,9-dihydro-10H-pyrido[3,2-b]thieno[3,4-e][1,4]-diazepin-10-one] gave an ED50 (Tremors by oxotremorine) of over 10000 mg/kg, an ED50 (Stress ulcer) of 4.43 mg/kg and an ED50 (Gastric acid secretion) of 3.12 mg/kg. For the same compound, the ED50 (Carbachole salivation) was 3.36 mg/kg and the LD50 at 336 h (Acute toxicity) was over 500 mg/kg.
